The experiment relates to M. tuberculosis H37Rv growth inhibition, 7H9 media. Kind of experiment: M. tuberculosis growth inhibition, HTS (AID 449762).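 As to all read-outs here: bacterial growth assessed after seven days of incubation.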 Conditions: for IC90: measured here: IC90 growth inhibition.

The IC50 is the midpoint of a concentration-inhibition curve. As a reminder, the IC90 is the point of the concentration-response curve where the effect stands at 90%. Read a low IC90 as greater potency.

SMILES strings stand for the structures. Inconclusive results are not listed.

As for `CCOC(=O)c1ccc(N=Cc2c(O)c3ccccc3oc2=O)cc1`, the IC50 is 66 µM and the IC90 is more than 100 µM.

On to `COc1ccc(C(=O)C2CCCN(C3CSCCSC3)C2)c(C)c1` (centres undefined), for which the half-inhibitory concentration (IC50) is 23.1 µM and the concentration for an effect of 90% (IC90) was found to be 26.4 µM.

For the molecule `NC1=NC[C@H](CC2CCCCC2)N1CCc1cc(C(F)(F)F)cc(C(F)(F)F)c1`, the IC50 was 8.9 µM and the IC90 is 11.6 µM.

As for `COC(=O)C(Cc1ccc(OC(=O)c2ccc(C(F)(F)F)cc2)cc1)N1Cc2ccccc2C1=O` (centres undefined), the IC90 is more than 100 µM.

`O=C(Nc1nc2nc(-c3ccccc3)cc(=O)n2[nH]1)c1ccccc1`: the IC50 was 17.8 µM and the IC90 is more than 100 µM.

With `CCCCCC(O)c1cccc(OCc2ccc3ccccc3n2)c1` (centres undefined), the IC50 was 44.7 µM and the IC90 was 50.5 µM.

Regarding `Cc1ccc(OCCCCNC2CCCC(C)C2C)c(C)c1` (centres undefined), the half-inhibitory concentration (IC50) was 21.8 µM and the IC90 worked out at 24.2 µM.

As to `Cc1ccc(NC(=O)c2ccc(CSc3nnc(C)s3)cc2)c(C)c1`, the half-maximal inhibitory concentration (IC50) is 17.4 µM and the 90% effect concentration (IC90) was more than 25 µM.

On to `COc1cccc(NC(=O)CNC(=O)Cn2cnc3sc4c(c3c2=O)CCCC4)c1`, for which the concentration for half-maximal inhibition (IC50) is 36.6 µM and the 90% effect concentration (IC90) was more than 100 µM.

Take `COc1ccc(C(C)=O)cc1COC(=O)c1ccc2ccccc2n1`: the half-inhibitory concentration (IC50) is 27.8 µM and the IC90 is more than 100 µM.

Take `C/C(CC(=O)Nc1ccc(Cl)cc1C(F)(F)F)=N\NC(N)=S`: the IC50 is 16 µM and the concentration for an effect of 90% (IC90) turned out to be 19.5 µM.

As to `O=c1c(O)c(-c2cccs2)oc2ccccc12`, the concentration for half-maximal inhibition (IC50) is 12 µM and the IC90 was more than 100 µM.

In the case of `COc1ccc(-c2cc3ccccc3oc2=O)cc1NC(=O)c1ccc([N+](=O)[O-])o1`, the IC50 is 0.37 µM and the IC90 was more than 100 µM.

As for `CCOC(=O)CNC(=O)CNC(=O)c1nn(-c2ccc(OC)c(Cl)c2)c(=O)c2ccccc12`, the 50% inhibitory concentration (IC50) was 22.2 µM and the IC90 was more than 100 µM.

As for `CCc1cc2c(=O)c(-c3cnn(-c4ccccc4)c3)c(C)oc2c(CN2CCCCC2)c1O`, the IC50 is 2.58 µM and the IC90 amounted to 21.7 µM.

Regarding `Cc1cc(=O)n2[nH]c(Nc3cccc(Cl)c3)nc2n1`, the IC50 was 20.4 µM and the IC90 was found to be 33 µM.

Turning to `O=C(Nc1ccc2nsnc2c1)NC1CCCCC1`, the IC50 is 26 µM and the IC90 is more than 50 µM.

Consider `CN(C)CCCN(C(=O)c1ccc([N+](=O)[O-])s1)c1nc2cc3c(cc2s1)OCCO3`, for which the concentration for half-maximal inhibition (IC50) is 30.7 µM and the IC90 amounted to 45.5 µM.

Take `Cc1ccccc1CSc1nsc(N)n1`: the IC50 is 6.7 µM and the 90% effect concentration (IC90) was found to be 19.6 µM.

On to `O=C(Nc1ccc(Cl)cc1)N(C1=NCCC1)c1ccc(OC(F)F)cc1`, for which the IC50 is 35 µM and the IC90 came out at 70.9 µM.

`CN(C)C/C=C/C(=O)Nc1cccc(-c2c[nH]c3ncnc(Oc4ccc(NC(=O)CC(=O)Nc5ccc(F)cc5)cc4F)c23)c1`: the concentration for half-maximal inhibition (IC50) was 7.38 µM and the IC90 turned out to be 14.7 µM.

`CN(C(=O)COC(=O)c1sc2ccccc2c1Cl)C1CCCCC1`: the 50% inhibitory concentration (IC50) is 4.8 µM and the IC90 was determined as 15 µM.

With `CC(C)OC(=O)c1ccc(COC(=O)c2cnccn2)cc1`, the IC50 was 7.68 µM and the IC90 is more than 100 µM.

With `Cc1ccc(CN2CC(C(=O)OCc3ccccc3Cl)CC2=O)cc1` (centres undefined), the concentration for half-maximal inhibition (IC50) was 4.66 µM and the concentration for an effect of 90% (IC90) was determined as 28.7 µM.

Turning to `CCc1ccc(C2=NN(c3ccc(S(N)(=O)=O)cc3)C(c3ccc(F)cc3)C2)cc1` (centres undefined), the IC50 was 36.2 µM and the IC90 came out at 48.7 µM.

For the molecule `Cc1ccc(NC(=O)CCl)cc1S(=O)(=O)N1CCCCCC1`, the IC50 is 2.6 µM and the IC90 worked out at 5.03 µM.

Take `CCOC(=O)c1nc2sc3c(c2c(=O)[nH]1)CCC(C)C3` (centres undefined): the IC50 is 46.7 µM and the 90% effect concentration (IC90) was more than 100 µM.

In the case of `Oc1ccc(/C=N/n2c3ccccc3c3ccccc32)cc1`, the 90% effect concentration (IC90) is more than 100 µM.

On to `O=C(NC1CCCCC1)C(c1cccs1)N(CCCN1CCOCC1)C(=O)c1ccc(-c2ccccc2)[nH]1` (centres undefined), for which the half-inhibitory concentration (IC50) is 40.2 µM and the 90% effect concentration (IC90) is 55.5 µM.

As for `CCOC(=O)c1ccc(NC(=S)NCCc2ccc(F)cc2)cc1`, the IC50 is 42.4 µM and the 90% effect concentration (IC90) was more than 100 µM.

Take `CN1CCN(Cc2nc3ccccc3c(=O)n2Cc2nc(-c3ccc4ccccc4c3)cs2)CC1`: the 50% inhibitory concentration (IC50) was 22.3 µM and the IC90 turned out to be 25.7 µM.

As for `Cc1cccc2c1N(CCCOc1ccc(C(C)(C)C)cc1)C(=O)C2=O`, the half-inhibitory concentration (IC50) was 17.3 µM and the IC90 was determined as 20.7 µM.

`COc1ccc(C2(c3ccc(OC)cc3)NC(=O)N(CC(=O)Nc3ccc(OC(F)F)cc3)C2=O)cc1`: the half-maximal inhibitory concentration (IC50) was 29.9 µM and the concentration for an effect of 90% (IC90) was 79.9 µM.

Take `COc1ccccc1C(CNC(=O)C(C)(C)Oc1ccc(Cl)cc1)N1CCCC1` (centres undefined): the IC50 was 23.5 µM and the IC90 was found to be 26.5 µM.

For the molecule `CCCCCCCCSc1nnc(CSc2nc3nc(C)cc(C)n3n2)o1`, the IC50 was 1.05 µM and the 90% effect concentration (IC90) amounted to 8.29 µM.

As to `Cn1cc(NC(=O)CCl)cn1`, the IC50 was 4.36 µM and the concentration for an effect of 90% (IC90) was 8.63 µM.

With `N#Cc1nccnc1S(=O)(=O)c1cccs1`, the concentration for half-maximal inhibition (IC50) was 40.6 µM and the IC90 was determined as 61.1 µM.

On to `O=C1C(SCCO)=C(SCCO)C(=O)c2ccccc21`, for which the IC50 was 6.06 µM and the concentration for an effect of 90% (IC90) worked out at 6.83 µM.

In the case of `O=[N+]([O-])c1cc(-c2ccc(/C=N\n3cnnc3)o2)cc([N+](=O)[O-])c1`, the IC50 is 0.65 µM and the 90% effect concentration (IC90) worked out at 1.86 µM.

Regarding `N#Cc1c([N+](=O)[O-])cc([N+](=O)[O-])cc1S(=O)(=O)Cc1ccccc1`, the half-inhibitory concentration (IC50) is 15.3 µM and the 90% effect concentration (IC90) is 22.6 µM.

In the case of `Cc1ccccc1N/N=C/c1c(C)nc2ccccn12`, the concentration for half-maximal inhibition (IC50) was 47.1 µM and the IC90 is 53.7 µM.

Turning to `CCn1c2ccccc2c2cc(CN3CCN(Cc4cc(OC)ccc4O)CC3)ccc21`, the IC50 is 16.8 µM and the IC90 stood at 23.5 µM.

For `CCOC(=O)CSC1=C(C#N)C(c2ccc(C)cc2)C2=C(CCCC2=O)N1` (centres undefined), the IC50 is 43.9 µM and the IC90 was more than 100 µM.

In the case of `CCCc1cc(-c2nc(-c3ccc(Br)cc3)cs2)ccn1`, the IC50 was 10.3 µM and the 90% effect concentration (IC90) stood at 20.6 µM.

Turning to `Cc1nc(SCC(=O)NCC2CCCO2)c2c3c(sc2n1)CCCC3` (centres undefined), the half-inhibitory concentration (IC50) was 22.2 µM and the IC90 is 24.6 µM.

Take `COc1cccc(-n2nnc3c(=O)n(CC(=O)N4CCC(Cc5ccccc5)CC4)cnc32)c1`: the IC50 is 23.2 µM and the IC90 is 36.7 µM.

For `Cc1nc2ccc(NC(=O)N(C(C)C)C(C)C)cc2s1`, the concentration for an effect of 90% (IC90) was more than 100 µM.

Take `CCc1ccc(Nc2n[n+](C)c(-c3ccncc3)s2)cc1`: the IC50 was 45.3 µM and the concentration for an effect of 90% (IC90) came out at 51.3 µM.

Turning to `CCOC(=O)c1ccc(N=C2SC(C(=O)Nc3ccc(C(=O)O)cc3)CC(=O)N2Cc2cccs2)cc1` (centres undefined), the concentration for an effect of 90% (IC90) is more than 100 µM.

Turning to `Cc1cc(Cl)ccc1NNC(=O)CCc1ccccc1`, the IC50 was 94.5 µM and the IC90 is more than 100 µM.

With `O=C(Nc1ccc(OC(F)(F)F)cc1)c1ccc2c(c1)no[n+]2[O-]`, the IC50 was less than 0.2 µM and the IC90 was determined as 0.2 µM.

For `COc1ccc(CCNc2cc(-c3ccccc3)nc3ncnn23)cc1`, the 50% inhibitory concentration (IC50) is 4.49 µM and the concentration for an effect of 90% (IC90) was more than 100 µM.

`Cc1ccccc1-n1sc2cc(F)ccc2c1=O`: the IC50 is 18.6 µM and the IC90 was 22.5 µM.

As to `CCOC(=O)c1ccc2c(c1)C(=O)N(C1CCCCC1)C2=O`, the IC50 is 98.3 µM and the IC90 was more than 100 µM.

Consider `c1ccc(-c2nccc(-c3ccc(-n4cnc5ccccc54)cc3)n2)nc1`, for which the IC50 is 11 µM and the IC90 is 16.5 µM.

In the case of `Cc1cccc(NC(=O)CCSc2nnc(Cc3ccccc3)o2)c1`, the half-maximal inhibitory concentration (IC50) is 17.1 µM and the 90% effect concentration (IC90) amounted to 49.3 µM.

As for `Cc1nonc1NC(=O)CSc1ccc(-c2ccccc2)nn1`, the IC50 is 21.1 µM and the concentration for an effect of 90% (IC90) is 52.9 µM.

As to `Cc1csc(NC(=O)CCCC(=O)O)c1-c1nc2ccccc2s1`, the half-inhibitory concentration (IC50) was 35.8 µM and the concentration for an effect of 90% (IC90) came out at 79.6 µM.

Consider `COC(=O)CCCCC1SCC(NC(=O)c2ccccc2)C1=O` (centres undefined), for which the IC50 is 8.79 µM and the concentration for an effect of 90% (IC90) is 15.4 µM.

For `CC(C(c1ccc2c(c1)OCO2)c1c(N)n(C)c(=O)n(C)c1=O)[N+](=O)[O-]` (centres undefined), the IC50 was 2.54 µM and the IC90 amounted to 6.08 µM.

With `C/C(CCc1ccc2c(c1)OCO2)=N\NC(=S)NC(C)C`, the IC50 is 35.7 µM and the IC90 was 48.4 µM.

With `CCCC1CCC(C(=O)Nn2c(C)nc3ccccc3c2=O)CC1` (centres undefined), the half-maximal inhibitory concentration (IC50) was 50.1 µM and the IC90 was more than 100 µM.

As for `N#CC(C#N)=c1ccc2c(c1)N1C3=C(CCCC3)CC3CCCCC31N=2` (centres undefined), the IC50 was 11.5 µM and the IC90 stood at 13.1 µM.

As for `CC(=O)N1CCN(c2ccc(OC[C@H]3CO[C@](Cn4ccnc4)(c4ccc(Cl)cc4Cl)O3)cc2)CC1`, the IC50 is 17.5 µM and the IC90 turned out to be 25.2 µM.

Consider `CC(=O)c1ccc(NC(=O)c2cc(CC(C)C)on2)cc1`, for which the IC50 is 11.1 µM and the concentration for an effect of 90% (IC90) stood at 14.4 µM.

As to `COc1cc2cc(C(c3nnnn3C(C)(C)C)N3CCc4ccccc43)c(=O)[nH]c2cc1OC` (centres undefined), the IC50 is 97.4 µM and the 90% effect concentration (IC90) was more than 100 µM.

As for `CC1CCCN(Cc2c(O)ccc3c(=O)c(-c4nc5ccccc5s4)c(N)oc23)C1` (centres undefined), the IC50 is 9.7 µM and the IC90 amounted to 12.7 µM.

Consider `COc1ccc(-c2nsc3c(N4CCCCC4C)ncnc23)cc1` (centres undefined), for which the IC50 is 41.2 µM and the IC90 was found to be 56.8 µM.

As to `O=C(Nc1ccc([N+](=O)[O-])cc1)Nc1ccc(OC(F)F)c(Cl)c1`, the concentration for half-maximal inhibition (IC50) is 2.83 µM and the 90% effect concentration (IC90) turned out to be 4.03 µM.

For the molecule `CN(C)CCCN1c2ccccc2Sc2ccc(Cl)cc21`, the 50% inhibitory concentration (IC50) is 51.6 µM and the IC90 was 59 µM.

In the case of `Oc1ccc(Nc2nc(-c3ccc4ccccc4c3)cs2)cc1`, the 50% inhibitory concentration (IC50) is 42.9 µM and the IC90 is more than 100 µM.

On to `Cc1ccc2nc(-c3cccc(Br)c3)cc(C(=O)NC3=NCCS3)c2c1`, for which the IC50 is 14 µM and the IC90 was found to be 28.9 µM.

Take `CCC(=O)c1ccc(OCC(=O)OCC(=O)c2cc(C)n(C3CC3)c2C)cc1`: the IC50 is 2.41 µM and the IC90 came out at 74.8 µM.

As for `Nc1ccc(S(=O)(=O)Nc2cnc3ccccc3n2)cc1`, the IC50 was 26.4 µM and the 90% effect concentration (IC90) is 52 µM.
